Data from article PMC4032192 (Journal of Medicinal Chemistry, 2014).
pKi: −log10 of the molar value.

Molecular target: rat nNOS (Rattus norvegicus, UniProt P29476)
Test: oxyhemoglobin NO capture assay, rat nNOS
Format: biochemical

Sequence of rat nNOS (P29476 whole entry): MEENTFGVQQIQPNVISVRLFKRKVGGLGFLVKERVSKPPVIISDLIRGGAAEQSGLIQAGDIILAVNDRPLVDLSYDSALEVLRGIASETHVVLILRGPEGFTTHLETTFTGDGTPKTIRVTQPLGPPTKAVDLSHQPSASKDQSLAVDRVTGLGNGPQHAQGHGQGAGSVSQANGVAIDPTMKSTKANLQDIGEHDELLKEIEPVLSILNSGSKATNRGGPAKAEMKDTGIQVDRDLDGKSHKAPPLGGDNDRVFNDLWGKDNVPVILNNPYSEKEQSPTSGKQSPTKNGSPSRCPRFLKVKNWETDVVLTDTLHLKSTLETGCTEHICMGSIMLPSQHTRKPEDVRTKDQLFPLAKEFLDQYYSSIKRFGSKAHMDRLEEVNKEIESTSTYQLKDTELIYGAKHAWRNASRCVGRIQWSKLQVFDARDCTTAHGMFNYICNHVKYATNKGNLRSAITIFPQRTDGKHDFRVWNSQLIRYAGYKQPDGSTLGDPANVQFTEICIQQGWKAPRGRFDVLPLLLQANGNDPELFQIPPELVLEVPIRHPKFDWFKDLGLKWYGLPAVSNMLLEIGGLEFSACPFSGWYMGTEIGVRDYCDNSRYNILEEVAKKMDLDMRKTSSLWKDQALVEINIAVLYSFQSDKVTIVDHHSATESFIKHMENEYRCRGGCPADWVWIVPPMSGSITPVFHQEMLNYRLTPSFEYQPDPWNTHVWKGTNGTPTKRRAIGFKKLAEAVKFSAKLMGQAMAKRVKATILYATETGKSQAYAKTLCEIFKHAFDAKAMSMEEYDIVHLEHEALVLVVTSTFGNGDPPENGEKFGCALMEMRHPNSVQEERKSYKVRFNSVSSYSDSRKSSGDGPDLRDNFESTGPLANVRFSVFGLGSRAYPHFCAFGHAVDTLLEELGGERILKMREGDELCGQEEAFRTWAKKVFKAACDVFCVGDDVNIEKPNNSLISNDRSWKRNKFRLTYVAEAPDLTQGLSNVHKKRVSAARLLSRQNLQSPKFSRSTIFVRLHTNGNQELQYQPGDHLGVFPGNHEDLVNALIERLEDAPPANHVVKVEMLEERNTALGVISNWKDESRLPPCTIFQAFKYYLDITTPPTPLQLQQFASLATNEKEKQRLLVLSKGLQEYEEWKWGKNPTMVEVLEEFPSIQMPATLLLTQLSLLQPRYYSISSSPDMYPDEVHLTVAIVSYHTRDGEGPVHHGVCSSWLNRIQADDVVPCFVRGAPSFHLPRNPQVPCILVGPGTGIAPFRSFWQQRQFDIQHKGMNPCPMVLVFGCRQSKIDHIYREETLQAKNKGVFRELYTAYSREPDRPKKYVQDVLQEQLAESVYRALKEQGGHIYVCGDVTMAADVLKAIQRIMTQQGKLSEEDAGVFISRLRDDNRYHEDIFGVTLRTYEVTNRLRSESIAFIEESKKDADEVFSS

Row | pKi | Structure (SMILES)
1 | ~7.00 | Cc1cc(N)nc(CCc2cccc([C@H](N)Cc3cc(C)cc(N)n3)c2)c1 [Compound 3R, (R)-6-(2-Amino-2-(3-(2-(6-amino-4-methylpyridin-2-yl)ethyl)phenyl)ethyl)-4-methylpyridin-2-amine]
2 | ~7.00 | Cc1cc(N)nc(CCc2cccc(C(O)Cc3cc(C)cc(N)n3)c2)c1 (centres unmarked) [Compound 4]
